The values below come from patent US20260193268A1, “TRICYCLIC PI3Ka INHIBITOR, PREPARATION METHOD THEREFOR, AND PHARMACEUTICAL USE THEREOF” (WIGEN BIOMEDICINE TECHNOLOGY (SHANGHAI) CO., LTD., priority 2022, published 2026).

In assay [1] the test system is HCC1954 cells (with PI3Kα H1047R mutation). In words: In vitro inhibition of HCC1954 cell proliferation (CellTiter-Lumi). The assay is classed as cell-based. The method, then:
Assay for In Vitro Inhibition of HCC1954 Cell Proliferation by Compounds of the Present Disclosure
The growth of the cells was evaluated, and the IC50 for the inhibition of cell growth by the compounds was calculated.

Assay [2] relates to MCF-7 cells (with PI3Kα E545K mutation). In words: In vitro inhibition of MCF-7 cell proliferation (CellTiter-Lumi). It is filed as cell-based. The protocol: Biological Example 3. Assay for In Vitro Inhibition of MCF-7 Cell Proliferation by Compounds of the Present Disclosure
MCF-7 cells (with PI3Kα E545K mutation) were seeded into a 384-well plate (Fisher 142762) at 2000 cells per well. The next day, serially diluted compounds were added, and 144 h after the addition, CellTiter-Lumi (Beyotime C0068XL) was added to measure the ATP content in the cells. The growth of the cells was evaluated, and the IC50 for the inhibition of cell growth by the compounds was calculated.

[3] abbreviates: Homo sapiens, HCC1954, 144 h, HCC1954 cells, 144 h, CellTiter-Lumi, numeric values, read-out: Inhibitory activity against HCC1954 cells (IC50).
Setting [4] is: Homo sapiens, MCF7, 144 h, numeric values, read-out: Inhibitory activity against MCF-7 cells (IC50).
[5] abbreviates: Homo sapiens, HCC1954, 144 h, HCC1954 cells, 144 h, CellTiter-Lumi, class symbols, read-out: Inhibitory activity against HCC1954 cells (IC50), class symbols.
[6] abbreviates: Homo sapiens, MCF7, 144 h, class symbols, read-out: Inhibitory activity against MCF-7 cells (IC50), class symbols.

Like-named read-outs stand apart in the source and are kept apart here.

The IC50 is the concentration needed to halve the response being measured. As to `CC#CC(=O)Nc1ccc(N2CC(N3CCN(c4ccc5c(c4)-c4nc(N6C(=O)OC[C@H]6C(F)F)cn4CCO5)CC3)C2)c(F)c1` [Compound 149], the IC50 came out at 0.115 µM in assay [1] (setting [3]) and 0.016 µM in assay [2] (setting [4]).

On to `C=CC(=O)Nc1ccc(N2CC(N3CCN(c4cc5c(cc4F)OCCn4cc(N6C(=O)OC[C@H]6C(F)F)nc4-5)CC3)C2)cc1` [Compound 102], for which the values for the IC50 in assay [1] (setting [3]) and in assay [2] (setting [4]) were 0.232 µM and 0.023 µM, respectively.

Regarding `C=CC(=O)Nc1ccc(CN2CCN(c3ccc4c(c3)-c3nc(N5C(=O)OC[C@H]5C(F)F)cn3CCO4)CC2)cc1` [Compound 44], the IC50 in assay [1] (setting [3]) came to 0.644 µM; in assay [2] (setting [4]), 0.151 µM.

On to `CC(C)(C=C(C#N)C(=O)Nc1ccc(N2CC(N3CCN(c4ccc5c(c4)-c4nc(N6C(=O)OC[C@H]6C(F)F)cn4CCO5)CC3)C2)cc1)NCCO` [Compound 383], for which the IC50 in assay [1] (setting [5]) and in assay [2] (setting [6]) was less than 0.05 µM in each case.

Regarding `C=CC(=O)N(C)c1ccc(N2CC(N3CCN(c4ccc5c(c4)-c4nc(N6C(=O)OC[C@H]6C(F)F)cn4CCO5)CC3)C2)cc1` [Compound 146], the IC50 in assay [1] (setting [3]) is 0.075 µM; in assay [2] (setting [4]) it was 0.0066 µM.

As to `C=CC(=O)Nc1ccc(N2CC(N3CCN(c4ccc5c(c4)-c4nc(N6C(=O)OC[C@H]6C(F)(F)F)cn4CCO5)CC3)C2)cc1` [Compound 277], the IC50 in assay [1] (setting [5]) and in assay [2] (setting [6]) was less than 0.05 µM each time.

For `CC(C)(C)C=C(C#N)C(=O)Nc1cnc(N2CC(N3CCN(c4ccc5c(c4)-c4nc(N6C(=O)OC[C@H]6C(F)F)cn4CCO5)CC3)C2)nc1` [Compound 259], the IC50 in assay [1] (setting [5]) and in assay [2] (setting [6]) was less than 0.05 µM each time.

Take `Cc1nc(-c2cn3c(n2)-c2cc(N4CCN(C5CN(c6ccc(NC(=O)C(C#N)=CC(C)(C)C)cc6Cl)C5)CC4)ccc2OCC3)n(C(C)C)n1` [Compound 369]: the IC50 in assay [1] (setting [5]) and in assay [2] (setting [6]) was less than 0.05 µM throughout.

Consider `CNC(C)(C)C=C(C#N)C(=O)Nc1ccc(N2CCC(N3CCN(c4ccc5c(c4)-c4nc(N6C(=O)OCC6C(F)F)cn4CCO5)CC3)C2)cc1` (centres unmarked) [Compound 215], for which the IC50 in assay [1] (setting [5]) and in assay [2] (setting [6]) was less than 0.05 µM throughout.

`CC(C)(C=C(C#N)C(=O)Nc1ccc(N2CC(N3CCN(c4ccc5c(c4)-c4nc(N6C(=O)OC[C@H]6C(F)F)cn4CCO5)CC3)C2)cc1)N1CC2(COC2)C1` [Compound 141]: the half-maximal inhibitory concentration (IC50) in assay [1] (setting [3]) was found to be 0.0067 µM; in assay [2] (setting [4]) it was 0.0006 µM.

For `CC(=O)NC(C)(C)C=C(C#N)C(=O)Nc1ccc(N2CC(N3CCN(c4ccc5c(c4)-c4nc(-c6nc(C)nn6C(C)C)cn4CCO5)CC3)C2)cc1` [Compound 375], the IC50 in assay [1] (setting [5]) and in assay [2] (setting [6]) was less than 0.05 µM in each case.

Take `Cc1nc(-c2cn3c(n2)-c2cc(N4CCN(C5CN(c6ccc(NC(=O)C(C#N)=CC(C)(C)C)c(Cl)c6)C5)CC4)ccc2OCC3)n(C(C)C)n1` [Compound 370]: the IC50 in assay [1] (setting [5]) and in assay [2] (setting [6]) was less than 0.05 µM each time.

With `C=CC(=O)Nc1ccc(N2CCC3(CCN(c4ccc5c(c4)-c4nc(N6C(=O)OC[C@H]6C(F)F)cn4CCO5)CC3)C2)cc1` [Compound 94], the IC50 stood at 0.3 µM in assay [1] (setting [3]) and 0.076 µM in assay [2] (setting [4]).

With `CC(C)C=C(C#N)C(=O)Nc1ccc(N2CC(N3CCN(c4ccc5c(c4)-c4nc(N6C(=O)OC[C@H]6C(F)F)cn4CCO5)CC3)C2)nc1` [Compound 244], the IC50 in assay [1] (setting [5]) and in assay [2] (setting [6]) was less than 0.05 µM each time.

As to `CN(C)CC#CC(=O)Nc1ccc(N2CC(N3CCN(c4ccc5c(c4)-c4nc(N6C(=O)OC[C@H]6C(F)F)cn4CCO5)CC3)C2)cc1` [Compound 153], the IC50 in assay [1] (setting [3]) stood at 0.01 µM; in assay [2] (setting [4]), 0.0008 µM.

On to `CNC1(C=C(C#N)C(=O)Nc2cnc(N3CC(N4CCN(c5ccc6c(c5)-c5nc(N7C(=O)OC[C@H]7C(F)F)cn5CCO6)CC4)C3)nc2)CC1` [Compound 273], for which the IC50 in assay [1] (setting [5]) and in assay [2] (setting [6]) was less than 0.05 µM each time.

Consider `CC(C)(C=C(C#N)C(=O)Nc1ccc(N2CC(N3CCN(c4ccc5c(c4)-c4nc(N6C(=O)OC[C@H]6C(F)F)cn4CCO5)CC3)C2)cc1)NC1(C)COC1` [Compound 380], for which the IC50 in assay [1] (setting [5]) and in assay [2] (setting [6]) was less than 0.05 µM throughout.

For the molecule `CC(C)(O)C=C(C#N)C(=O)Nc1ccc(N2CC(N3CCN(c4ccc5c(c4)-c4nc(N6C(=O)OC[C@H]6C(F)F)cn4CCO5)CC3)C2)cc1` [Compound 211], the IC50 in assay [1] (setting [5]) and in assay [2] (setting [6]) was less than 0.05 µM throughout.

As to `CC1CC1C=C(C#N)C(=O)Nc1ccc(N2CC(N3CCN(c4ccc5c(c4)-c4nc(N6C(=O)OC[C@H]6C(F)F)cn4CCO5)CC3)C2)cc1` (some centres unmarked) [Compound 284], the IC50 in assay [1] (setting [5]) and in assay [2] (setting [6]) was less than 0.05 µM in each case.

As for `C=CC(=O)Nc1ccc(N2CC(N3CCN(c4ccc5c(c4)-c4nc(N6C(=O)OC[C@H]6C)cn4CCO5)CC3)C2)cc1` [Compound 131], the IC50 in assay [1] (setting [3]) turned out to be 0.084 µM; in assay [2] (setting [4]), 0.015 µM.

For `Cc1nc(-c2cn3c(n2)-c2cc(N4CCN(C5CN(c6ccc(NC(=O)C(C#N)=CC(C)(C)C)cc6)C5)CC4)ccc2OCC3)n(C(C)C)n1` [Compound 340], the IC50 in assay [1] (setting [5]) and in assay [2] (setting [6]) was less than 0.05 µM each time.

For `CNC1(C=C(C#N)C(=O)Nc2ccc(N3CC(N4CCN(c5ccc6c(c5)-c5nc(N7C(=O)OC[C@H]7C(F)F)cn5CCO6)CC4)C3)c(F)c2)CC1` [Compound 237], the IC50 in assay [1] (setting [5]) and in assay [2] (setting [6]) was less than 0.05 µM each time.

As for `C=CC(=O)N1CC(N2CCC(c3ccc(-c4ccc5c(c4)-c4nc(N6C(=O)OC[C@H]6C(F)F)cn4CCO5)cc3)CC2)C1` [Compound 197], the IC50 is 0.1 to 1 µM in assay [1] (setting [5]) and less than 0.05 µM in assay [2] (setting [6]).

On to `CCOP(=O)(OCC)OC(C)(C)C=C(C#N)C(=O)Nc1ccc(N2CC(N3CCN(c4ccc5c(c4)-c4nc(N6C(=O)OC[C@H]6C(F)F)cn4CCO5)CC3)C2)cc1` [Compound 342], for which the IC50 in assay [1] (Homo sapiens, HCC1954, 144 h, read-out: Inhibitory activity against HCC1954 cells (IC50), class symbols) is less than 0.05 µM; in assay [2] (setting [6]), less than 0.05 µM.

Turning to `COCCNC(C)(C)C=C(C#N)C(=O)Nc1ccc(N2CC(N3CCN(c4ccc5c(c4)-c4nc(N6C(=O)OC[C@H]6C(F)F)cn4CCO5)CC3)C2)c(F)c1` [Compound 232], the IC50 in assay [1] (setting [5]) and in assay [2] (setting [6]) was less than 0.05 µM in each case.

For `C=CC(=O)Nc1ccc(N2CC(N3CCN(c4ccc5c(c4)-c4nc(N6C(=O)OC[C@H]6C(F)F)cn4CCO5)CC3)C2)cc1C(F)(F)F` [Compound 142], the IC50 in assay [1] (setting [3]) was determined as 0.0083 µM; in assay [2] (setting [4]), 0.0005 µM.

For the molecule `CN(C1COC1)C(C)(C)C=C(C#N)C(=O)Nc1ccc(N2CC(N3CCN(c4ccc5c(c4)-c4nc(N6C(=O)OC[C@H]6C(F)F)cn4CCO5)CC3)C2)cn1` [Compound 289], the IC50 in assay [1] (setting [5]) and in assay [2] (setting [6]) was less than 0.05 µM throughout.

For `CC(C)(C=C(C#N)C(=O)Nc1ccc(N2CC(N3CCN(c4ccc5c(c4)-c4nc(N6C(=O)OC[C@H]6C(F)F)cn4CCO5)CC3)C2)c(F)c1)NC1COC1` [Compound 221], the IC50 in assay [1] (setting [5]) and in assay [2] (setting [6]) was less than 0.05 µM in each case.

For `C=CC(=O)Nc1ccc(N2CC(N3CCN(c4ccc5c(c4)-c4nc(-c6nc(C)nn6C(C)C)cn4CCO5)CC3)C2)cc1Cl` [Compound 377], the concentration for half-maximal inhibition (IC50) in assay [1] (setting [5]) and in assay [2] (setting [6]) was less than 0.05 µM throughout.

Take `CC(C)OC(=O)OCOP(=O)(OCOC(=O)OC(C)C)OCOC(C)(C)C=C(C#N)C(=O)Nc1ccc(N2CC(N3CCN(c4ccc5c(c4)-c4nc(N6C(=O)OC[C@H]6C(F)F)cn4CCO5)CC3)C2)cc1` [Compound 344]: the IC50 in assay [1] (setting [5]) and in assay [2] (setting [6]) was less than 0.05 µM each time.

As to `CC(C)(C=C(C#N)C(=O)Nc1ccc(N2CC(N3CCN(c4ccc5c(c4)-c4nc(N6C(=O)OC[C@H]6C(F)F)cn4CCO5)CC3)C2)cc1)NC(=O)OC(C)(C)C` [Compound 324B], the IC50 in assay [1] (HCC1954 cells, 144 h, CellTiter-Lumi, numeric values, read-out: Inhibitory activity against HCC1954 cells (IC50)) came out at 0.0062 µM; in assay [2] (144 h, numeric values, read-out: Inhibitory activity against MCF-7 cells (IC50)), 0.0026 µM.

As to `CC(C)(N)C=C(C#N)C(=O)Nc1ncc(N2CC(N3CCN(c4ccc5c(c4)-c4nc(N6C(=O)OC[C@H]6C(F)F)cn4CCO5)CC3)C2)cn1` [Compound 294], the IC50 in assay [1] (setting [5]) and in assay [2] (setting [6]) was less than 0.05 µM throughout.

`CNC1(C=C(C#N)C(=O)Nc2ccc(N3CC(N4CCN(c5ccc6c(c5)-c5nc(N7C(=O)OC[C@H]7C(F)F)cn5CCO6)CC4)C3)cc2)CCC1` [Compound 392]: the IC50 in assay [1] (setting [5]) and in assay [2] (setting [6]) was less than 0.05 µM each time.

Turning to `C=CC(=O)Nc1ccc(N2CC(N3CCN(c4ccc5c(c4)-c4nc(N6C(=O)OC[C@H]6C(F)F)cn4CCO5)CC3)C2)c(C)c1` [Compound 129], the IC50 in assay [1] (setting [3]) came out at 0.0069 µM; in assay [2] (setting [4]), 0.0003 µM.

`CC(C)(C=C(C#N)C(=O)Nc1cnc(N2CC(N3CCN(c4ccc5c(c4)-c4nc(N6C(=O)OC[C@H]6C(F)F)cn4CCO5)CC3)C2)nc1)N1CCC1` [Compound 265]: the IC50 in assay [1] (setting [5]) and in assay [2] (setting [6]) was less than 0.05 µM each time.

`C=CC(=O)Nc1ccc(N2CC(N3CCN(c4ccc5c(c4)-c4nc(-c6nc(C)nn6C(C)C)cn4CCO5)CC3)C2)cc1` [Compound 111]: the IC50 in assay [1] (setting [3]) stood at 0.0025 µM; in assay [2] (setting [4]), 0.0001 µM.

On to `CC(C)(O)C=C(C#N)C(=O)Nc1ccc(N2CC(N3CCN(c4ccc5c(c4)-c4nc(N6C(=O)OC[C@H]6C(F)F)cn4CCO5)CC3)C2)c(F)c1` [Compound 230], for which the IC50 in assay [1] (setting [5]) and in assay [2] (setting [6]) was less than 0.05 µM in each case.
